From article PMC8246065 (The EMBO Journal, 2021)

Legend:
NOD1 H517A = target: T1, NOD1 H517A (Homo sapiens, UniProt Q9Y239, H517A); assay: MST binding to purified NOD1 H517A-GFP
T1 construct: made in house
T1 sequence (Q9Y239 1-953 H517A): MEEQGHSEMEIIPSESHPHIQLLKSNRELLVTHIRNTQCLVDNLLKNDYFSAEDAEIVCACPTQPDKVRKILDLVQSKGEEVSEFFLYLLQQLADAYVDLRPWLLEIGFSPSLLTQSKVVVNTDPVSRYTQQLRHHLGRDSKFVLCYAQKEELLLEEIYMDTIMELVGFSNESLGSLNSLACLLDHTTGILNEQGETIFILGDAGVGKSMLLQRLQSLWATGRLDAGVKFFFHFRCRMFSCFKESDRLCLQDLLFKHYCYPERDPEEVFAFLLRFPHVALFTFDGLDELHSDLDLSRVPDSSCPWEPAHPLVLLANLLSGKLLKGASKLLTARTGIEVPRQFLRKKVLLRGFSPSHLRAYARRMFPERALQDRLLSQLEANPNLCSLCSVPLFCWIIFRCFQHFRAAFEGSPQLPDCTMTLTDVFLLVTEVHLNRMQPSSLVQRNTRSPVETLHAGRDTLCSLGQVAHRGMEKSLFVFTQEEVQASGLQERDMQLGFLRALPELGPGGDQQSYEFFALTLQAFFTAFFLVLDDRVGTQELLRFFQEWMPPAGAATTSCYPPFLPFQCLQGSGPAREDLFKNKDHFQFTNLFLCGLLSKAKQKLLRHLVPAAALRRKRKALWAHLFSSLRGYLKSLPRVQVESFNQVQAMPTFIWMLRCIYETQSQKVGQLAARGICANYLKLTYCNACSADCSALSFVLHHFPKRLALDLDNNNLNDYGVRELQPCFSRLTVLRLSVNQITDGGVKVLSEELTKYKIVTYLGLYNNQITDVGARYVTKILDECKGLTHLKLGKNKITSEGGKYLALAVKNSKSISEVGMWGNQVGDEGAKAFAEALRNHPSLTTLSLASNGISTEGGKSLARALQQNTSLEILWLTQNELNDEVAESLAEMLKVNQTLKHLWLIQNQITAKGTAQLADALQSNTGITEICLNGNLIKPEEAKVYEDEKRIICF
Experimental: The mutagenesis was performed with Q5® site‐directed mutagenesis kit (E0554, NEB) according to the manufacturer's instructions. The primers used in this study were as follows: NOD1 E157A F: 5′‐[…]gcg[…]‐3′, NOD1 E157A R: 5′‐[…]‐3′, NOD1 D161A F: 5′‐[…]gcg[…]‐3′, NOD1 D161A R: 5′‐[…]‐3′, NOD1 D203A F: 5′‐[…]gcg[…]‐3′, D203A R: 5′‐[…]‐3′, L218A F: 5′‐[…]gcg[…]‐3′, L218A R: 5′‐[…]‐3′, R237A F: 5′‐[…]gcg[…]‐3′, R237A R: 5′‐[…]‐3′, H257A F: 5′‐[…]gcg[…]‐3′, H257A R: 5′‐[…]‐3′, E267A F: 5′‐[…]gcg[…]‐3′, E267A R: 5′‐[…]‐3′, H290A F: 5′‐[…]gcg[…]‐3′, H290A R: 5′‐[…]‐3′, E306A F: 5′‐[…]gcg[…]‐3′, E306A R: 5′‐[…]‐3′, K324A F: 5′‐[…]gcg[…]‐3′, K324A R: 5′‐[…]‐3′, K328A F: 5′‐[…]gcg[…]‐3′, K328A R: 5′‐[…]‐3′, R340A F: 5′‐[…]gcg[…]‐3′, R340A R: 5′‐[…]‐3′, R344A F: 5′‐[…]gcg[…]‐3′, R344A R: 5′‐[…]‐3′, R350A F: 5′‐[…]gcg[…]‐3′, R350A R: 5′‐[…]‐3′, D372A F: 5′‐[…]gcg[…]‐3′, D372A R: 5′‐[…]‐3′, R373A F: 5′‐[…]gcg[…]‐3′, R373A R: 5′‐[…]‐3′, R399A F: 5′‐[…]gcg[…]‐3′, R399A R: 5′‐[…]‐3′, D423A F: 5′‐[…]gcg[…]‐3′, D423A R: 5′‐[…]‐3′, R435A F: 5′‐5′‐[…]gcg[…]‐3′, R435A R: 5′‐[…]‐3′, Q484A F: 5′‐[…]gcg[…]‐3′, Q484A R: 5′‐[…]‐3′, L495A F: 5′‐[…]gcg[…]‐3′, L495A R: 5′‐[…]‐3′, E514A F: 5′‐[…]gcg[…]‐3′, E514A R: 5′‐[…]‐3′, H517A F: 5′‐[…]gcg[…]‐3′, H517A R: 5′‐[…]‐3′, L540A F: 5′‐[…]gcg[…]‐3′, L540A R: 5′‐[…]‐3′, F544A F: 5′‐[…]gcg[…]‐3′, and F544A R: 5′‐[…]‐3′.

[1] = test system: HEK293T WT and NOD1/2 KO NF‐κB reporter cells; assay: NF-κB luciferase assay and IL8 qRT-PCR in HEK293T WT and NOD1/2 KO cells; format: cell-based, human; details: cytosolic S1P, HEK293T WT vs NOD1/2 KO
Experimental: HEK293T WT and NOD1/2 KO NF‐κB reporter cells were seeded in 96‐well plates and stimulated with various stressors for 8 h. Then, cells were lysed in lysis buffer (Thermo Fisher Scientific) and luciferase activities were determined with firefly luciferase glow kit (Thermo Fisher Scientific) according to the manufacturer’s instructions. Luciferase activities were normalized to the amount of protein determined with Coomassie Plus kit (Thermo Fisher Scientific). Fold inductions were calculated against normalized luciferase activities of corresponding controls.
Total RNA was isolated with TRIzol reagent, as described by the manufacturer (Invitrogen). RNA (1 μg) was used to generate cDNA via the iScript cDNA Synthesis Kit (Bio‐Rad), and qRT–PCR was performed using Power SYBR Green Master Mix (Applied Biosystems) in a StepOne Plus thermocycler (Applied Biosystems). The average threshold cycle (Ct) of quadruplicate reactions was employed for all subsequent calculations using the ΔΔCt method. Gene expression was normalized to glyceraldehyde‐3‐phosphate dehydrogenase (GAPDH), and fold changes were calculated against corresponding controls. qRT–PCR data were representative of at least three independent experiments, with at least 2 technical replicates per experiment. […]

Kd (NOD1 H517A; Kd value of NOD1 H517A with S1P): ~15 µM
Kd (NOD1 H517A; Kd(NOD1 H517A: S1P), Fig 7E): 13.7 ± 6.1 µM
SMILES: CCCCCCCCCCCCC/C=C/[C@@H](O)[C@@H](N)COP(=O)(O)O [S1P, sphingosine‐1‐phosphate]
NF-κB activation and IL8 expression [1]: induced NOD1/2‐dependent NF‐κB activation and IL8 expression
